Toxic doses and inconclusive results are not listed.

From PubChem BioAssay AID248 (DTP/NCI, 2004) come the findings set out here.

The subject of the assay is L1210 leukemia ip in BDF1 mice, survival T/C. The experiment in a line: NCI In Vivo Anticancer Drug Screen. Data for tumor model L1210 Leukemia (intraperitoneal) in B6D2F1 (BDF1) mice. As to conditions: endpoint: mean survival time, higher = longer survival. Summed up: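 Read-out is survival time, reported as the treated-group measurement over the vehicle-control measurement.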

Where [1] appears, read: dose: 100.0 mg/kg/injection, schedule: Q01DX001 (ip), vehicle: saline with Tween-80.
Where [2] appears, read: dose: 200.0 mg/kg/injection, schedule: Q01DX001 (ip), vehicle: saline with Tween-80.
Setting [3] is: dose: 100.0 mg/kg/injection, schedule: Q01DX009 (ip), vehicle: Klucel (hydroxypropylcellulose) (HPC).
Where [4] appears, read: dose: 200.0 mg/kg/injection, schedule: Q01DX009 (ip), vehicle: Klucel (hydroxypropylcellulose) (HPC).
[5] abbreviates: dose: 400.0 mg/kg/injection, schedule: Q01DX009 (ip), vehicle: Klucel (hydroxypropylcellulose) (HPC).
Setting [6] is: dose: 100.0 mg/kg/injection, schedule: Q01DX001 (ip), vehicle: saline.
The mark [7] stands for this setting: dose: 200.0 mg/kg/injection, schedule: Q01DX001 (ip), vehicle: saline.
Setting [8] is: dose: 400.0 mg/kg/injection, schedule: Q01DX001 (ip), vehicle: saline.
The mark [9] stands for this setting: dose: 100.0 mg/kg/injection, schedule: Q04DX003 (ip), vehicle: saline.
Where [10] appears, read: dose: 200.0 mg/kg/injection, schedule: Q04DX003 (ip), vehicle: saline.
The mark [11] stands for this setting: dose: 400.0 mg/kg/injection, schedule: Q04DX003 (ip), vehicle: saline.
Setting [12] is: dose: 100.0 mg/kg/injection, schedule: Q01DX001 (ip), vehicle: carboxymethylcellulose (CMC).
Setting [13] is: dose: 200.0 mg/kg/injection, schedule: Q01DX001 (ip), vehicle: carboxymethylcellulose (CMC).
Setting [14] is: dose: 400.0 mg/kg/injection, schedule: Q01DX001 (ip), vehicle: carboxymethylcellulose (CMC).
Setting [15] is: dose: 100.0 mg/kg/injection, schedule: Q01DX009 (ip), vehicle: saline.
The mark [16] stands for this setting: dose: 200.0 mg/kg/injection, schedule: Q01DX009 (ip), vehicle: saline.
[17] abbreviates: dose: 400.0 mg/kg/injection, schedule: Q01DX009 (ip), vehicle: saline.

As to `CC(Cl)CNC(=O)Nc1cccc2c1CCCC2` (configuration not stated), the T/C is 103 % of control (dose: 50.0 mg/kg/injection, schedule: Q01DX001 (ip), vehicle: saline with Tween-80); 100 % of control under setting [1]; 96 % of control (dose: 100.0 mg/kg/injection, schedule: Q01DX009 (ip), vehicle: saline with Tween-80); 94 % of control under setting [2]; 95 % of control (dose: 200.0 mg/kg/injection, schedule: Q01DX009 (ip), vehicle: saline with Tween-80); 91 % of control (dose: 400.0 mg/kg/injection, schedule: Q01DX001 (ip), vehicle: saline with Tween-80). Moreover, the T/C (dose: 400.0 mg/kg/injection, schedule: Q01DX009 (ip), vehicle: saline with Tween-80) was 90 % of control.

Take `CC(=O)Nc1cccc(OC(=O)Nc2ccccc2F)c1`: the T/C was 91 % of control under setting [3], 101 % of control under setting [4] and 112 % of control under setting [5].

For `CCN(CC)CCCC(C)Nc1nnc2c(=O)n(C)c(=O)n(C)c2n1` (configuration not stated), the T/C is 89 % of control (dose: 75.0 mg/kg/injection, schedule: Q04DX003 (ip), vehicle: saline); 90 % of control (dose: 150.0 mg/kg/injection, schedule: Q04DX003 (ip), vehicle: saline); 87 % of control (dose: 300.0 mg/kg/injection, schedule: Q04DX003 (ip), vehicle: saline).

For `CCCCCCCCCCCCCCCC[As](=O)(O)CCCCCCCCCCCCCCCC`, the T/C (dose: 50.0 mg/kg/injection, schedule: Q01DX001 (ip), vehicle: saline) is 97 % of control; the T/C under setting [6] is 97 % of control; the T/C under setting [7] was 89 % of control; the T/C under setting [8] was 101 % of control.

Turning to `O=C(NCc1ccccc1)c1ccc(Cl)cc1`, the T/C is, setting by setting: under setting [9], 97 % of control; under setting [10], 97 % of control; under setting [11], 95 % of control.

Regarding `O=[N+]([O-])C=C1CCCCC1`, the T/C by setting is: under setting [1], 101 % of control; under setting [2], 109 % of control.

For `O=C1OC(=O)C2CC3OC3CC12` (configuration not stated), the T/C reads like this: (dose: 50.0 mg/kg/injection, schedule: Q01DX001 (ip), vehicle: saline sonified) 106 % of control; (dose: 100.0 mg/kg/injection, schedule: Q01DX001 (ip), vehicle: saline sonified) 96 % of control; (dose: 100.0 mg/kg/injection, schedule: Q04DX003 (ip), vehicle: saline with Tween-80) 91 % of control; (dose: 200.0 mg/kg/injection, schedule: Q01DX001 (ip), vehicle: saline sonified) 93 % of control; (dose: 200.0 mg/kg/injection, schedule: Q04DX003 (ip), vehicle: saline with Tween-80) 94 % of control; (dose: 400.0 mg/kg/injection, schedule: Q04DX003 (ip), vehicle: saline with Tween-80) 108 % of control.

Take `Fc1ccc(CSc2ncnc3c2ncn3C2CCCCO2)cc1` (configuration not stated): the T/C reads like this: (dose: 3.0 mg/kg/injection, schedule: Q01DX015 (ip), vehicle: carboxymethylcellulose (CMC)) 97 % of control; (dose: 6.0 mg/kg/injection, schedule: Q01DX015 (ip), vehicle: carboxymethylcellulose (CMC)) 97 % of control; (dose: 12.0 mg/kg/injection, schedule: Q01DX015 (ip), vehicle: carboxymethylcellulose (CMC)) 98 % of control; (dose: 25.0 mg/kg/injection, schedule: Q01DX015 (ip), vehicle: carboxymethylcellulose (CMC)) 102 % of control; (dose: 50.0 mg/kg/injection, schedule: Q01DX015 (ip), vehicle: carboxymethylcellulose (CMC)) 101 % of control; under setting [12], 96 % of control. For the same compound, the T/C reads like this: (dose: 100.0 mg/kg/injection, schedule: Q01DX015 (ip), vehicle: carboxymethylcellulose (CMC)) 103 % of control; under setting [13], 96 % of control; (dose: 200.0 mg/kg/injection, schedule: Q01DX015 (ip), vehicle: carboxymethylcellulose (CMC)) 119 % of control; under setting [14], 102 % of control; (dose: 400.0 mg/kg/injection, schedule: Q01DX015 (ip), vehicle: carboxymethylcellulose (CMC)) 166 % of control; (dose: 800.0 mg/kg/injection, schedule: Q01DX001 (ip), vehicle: carboxymethylcellulose (CMC)) 102 % of control. Further, for the setting “dose: 1600.0 mg/kg/injection, schedule: Q01DX001 (ip), vehicle: carboxymethylcellulose (CMC)”, the T/C was 112 % of control.

As to `COc1ccc2c(c1)CC=CO2`, the T/C under setting [12] is 107 % of control, the T/C under setting [13] was 94 % of control and the T/C under setting [14] was 100 % of control.

On to `CCOC(=O)c1ccc[n+](CCCl)c1`, for which the T/C is 98 % of control (dose: 10.0 mg/kg/injection, schedule: Q01DX Z (ip), vehicle: saline); 97 % of control (dose: 30.0 mg/kg/injection, schedule: Q01DX Z (ip), vehicle: saline); 90 % of control (dose: 100.0 mg/kg/injection, schedule: Q01DX Z (ip), vehicle: saline).

Regarding `c1ccc(-c2cscc2-c2ccccc2)cc1`, the T/C (dose: 25.0 mg/kg/injection, schedule: Q01DX009 (ip), vehicle: saline) was 105 % of control; the T/C (dose: 50.0 mg/kg/injection, schedule: Q01DX009 (ip), vehicle: saline) was 96 % of control; the T/C under setting [15] is 100 % of control; the T/C under setting [16] was 97 % of control; the T/C under setting [17] was 98 % of control.

On to `BrC1CCCCCC(Br)C12OCCO2` (configuration not stated), for which the T/C by setting is: under setting [3], 95 % of control; (dose: 100.0 mg/kg/injection, schedule: Q04DX003 (ip), vehicle: Klucel (hydroxypropylcellulose) (HPC)) 102 % of control; under setting [4], 98 % of control; (dose: 200.0 mg/kg/injection, schedule: Q04DX003 (ip), vehicle: Klucel (hydroxypropylcellulose) (HPC)) 104 % of control; under setting [5], 101 % of control; (dose: 400.0 mg/kg/injection, schedule: Q04DX003 (ip), vehicle: Klucel (hydroxypropylcellulose) (HPC)) 100 % of control.

As for `CC(C)(CS(C)(=O)=O)NC(=O)NCCCl`, the T/C is, setting by setting: (dose: 100.0 mg/kg/injection, schedule: Q04DX002 (ip), vehicle: saline) 103 % of control; (dose: 200.0 mg/kg/injection, schedule: Q04DX002 (ip), vehicle: saline) 92 % of control; (dose: 400.0 mg/kg/injection, schedule: Q04DX002 (ip), vehicle: saline) 103 % of control.

Take `CCNc1nnnn1CC`: the T/C is, setting by setting: under setting [9], 101 % of control; under setting [10], 98 % of control; under setting [11], 101 % of control.

`CC1COCCCCCC(=O)C1` (configuration not stated): the T/C under setting [6] is 91 % of control, the T/C under setting [7] was 107 % of control and the T/C under setting [8] was 107 % of control.

As to `CC[C@@]1(O)C(=O)OCc2c1cc1n(c2=O)Cc2cc3ccccc3[n+]([O-])c2-1`, the T/C reads like this: (dose: 1.0 mg/kg/injection, schedule: Q01DX015 (ip), vehicle: saline) 112 % of control; (dose: 8.0 mg/kg/injection, schedule: Q01DX015 (ip), vehicle: saline) 86 % of control; (dose: 12.5 mg/kg/injection, schedule: Q01DX001 (ip), vehicle: saline) 115 % of control.

`c1ccc(Nc2ccc(Nc3ccccc3)cc2)cc1`: the T/C (dose: 100.0 mg/kg/injection, schedule: Q01DX001 (ip), vehicle: Klucel (hydroxypropylcellulose) (HPC)) was 94 % of control; the T/C under setting [15] was 113 % of control; the T/C under setting [9] is 86 % of control; the T/C (dose: 200.0 mg/kg/injection, schedule: Q01DX001 (ip), vehicle: Klucel (hydroxypropylcellulose) (HPC)) was 94 % of control; the T/C under setting [16] was 110 % of control; the T/C under setting [10] is 93 % of control. The T/C is, setting by setting: (dose: 400.0 mg/kg/injection, schedule: Q01DX001 (ip), vehicle: Klucel (hydroxypropylcellulose) (HPC)) 91 % of control; under setting [17], 110 % of control; under setting [11], 95 % of control.

As to `O=S(=O)(O)c1ccc(-c2nc(-c3ccccc3)c(-c3ccccc3)[nH]2)cc1`, the T/C is, setting by setting: under setting [15], 102 % of control; under setting [16], 102 % of control; under setting [17], 101 % of control.
